Among the targets are 5-HT2A (Homo sapiens, UniProt P28223); 5-HT2B (Homo sapiens, UniProt P41595); h5-HT4B (Homo sapiens, UniProt Q13639).
Common to all, as to test: receptor-ligand binding
The next assay addresses Human D2 (Homo sapiens, UniProt P14416). The settings on record: read-out: Ki (μM) / Human D2.
Another assay addresses T1, hD4 (Homo sapiens, UniProt P21917).
T1 sequence (P21917 1-419): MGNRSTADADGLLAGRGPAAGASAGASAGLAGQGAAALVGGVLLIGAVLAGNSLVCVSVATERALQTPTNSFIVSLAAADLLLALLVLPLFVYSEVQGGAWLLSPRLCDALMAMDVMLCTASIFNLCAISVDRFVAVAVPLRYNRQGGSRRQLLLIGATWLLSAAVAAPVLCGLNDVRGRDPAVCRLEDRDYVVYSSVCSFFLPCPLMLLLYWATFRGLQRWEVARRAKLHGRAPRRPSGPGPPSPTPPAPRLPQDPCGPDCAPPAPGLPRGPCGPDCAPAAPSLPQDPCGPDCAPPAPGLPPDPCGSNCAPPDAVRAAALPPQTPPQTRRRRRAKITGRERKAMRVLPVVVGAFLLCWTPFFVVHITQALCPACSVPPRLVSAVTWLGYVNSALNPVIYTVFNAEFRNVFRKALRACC
The settings on record: given as a range.

A further assay has as its target T2, 5-HT2C (Homo sapiens, UniProt P28335).
T2 sequence (P28335 33-458): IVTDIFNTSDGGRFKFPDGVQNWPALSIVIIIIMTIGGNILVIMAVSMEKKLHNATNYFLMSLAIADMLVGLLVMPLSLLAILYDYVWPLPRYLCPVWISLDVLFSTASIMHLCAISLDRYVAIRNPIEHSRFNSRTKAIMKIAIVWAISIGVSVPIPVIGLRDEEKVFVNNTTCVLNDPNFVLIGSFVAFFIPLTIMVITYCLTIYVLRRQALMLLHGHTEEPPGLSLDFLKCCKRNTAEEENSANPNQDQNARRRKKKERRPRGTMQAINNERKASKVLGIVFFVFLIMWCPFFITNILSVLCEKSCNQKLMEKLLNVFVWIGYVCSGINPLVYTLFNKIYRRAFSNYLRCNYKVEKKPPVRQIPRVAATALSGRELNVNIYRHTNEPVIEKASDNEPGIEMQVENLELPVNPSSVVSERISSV

The next assay concerns the target T3, m5-HT3 (Mus musculus, UniProt P23979).
T3 sequence (P23979 24-489): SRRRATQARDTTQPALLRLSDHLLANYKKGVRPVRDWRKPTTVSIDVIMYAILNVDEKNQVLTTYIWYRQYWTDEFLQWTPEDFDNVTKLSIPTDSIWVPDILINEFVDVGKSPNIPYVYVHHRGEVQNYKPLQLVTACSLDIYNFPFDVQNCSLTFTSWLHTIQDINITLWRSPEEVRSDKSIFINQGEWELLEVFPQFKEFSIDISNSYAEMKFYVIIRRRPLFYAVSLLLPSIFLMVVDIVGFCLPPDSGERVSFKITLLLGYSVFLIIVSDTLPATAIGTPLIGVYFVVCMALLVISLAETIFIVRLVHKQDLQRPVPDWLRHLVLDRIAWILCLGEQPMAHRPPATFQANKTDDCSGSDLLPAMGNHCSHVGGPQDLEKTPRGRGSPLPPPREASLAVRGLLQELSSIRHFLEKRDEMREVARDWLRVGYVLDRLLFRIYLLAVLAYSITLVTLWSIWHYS
The settings on record: given as a range.

The target in the next assay is Rat D2 (Rattus norvegicus, UniProt P61169). The settings on record: read-out: Ki (μM) / Rat D2.

The structures appear in SMILES notation. pKi: −log10 of the molar value.

As a reminder, the pKi is −log10 of the Ki, conventionally taken in molar units.

Chain of 5-HT2A (P28223 whole entry): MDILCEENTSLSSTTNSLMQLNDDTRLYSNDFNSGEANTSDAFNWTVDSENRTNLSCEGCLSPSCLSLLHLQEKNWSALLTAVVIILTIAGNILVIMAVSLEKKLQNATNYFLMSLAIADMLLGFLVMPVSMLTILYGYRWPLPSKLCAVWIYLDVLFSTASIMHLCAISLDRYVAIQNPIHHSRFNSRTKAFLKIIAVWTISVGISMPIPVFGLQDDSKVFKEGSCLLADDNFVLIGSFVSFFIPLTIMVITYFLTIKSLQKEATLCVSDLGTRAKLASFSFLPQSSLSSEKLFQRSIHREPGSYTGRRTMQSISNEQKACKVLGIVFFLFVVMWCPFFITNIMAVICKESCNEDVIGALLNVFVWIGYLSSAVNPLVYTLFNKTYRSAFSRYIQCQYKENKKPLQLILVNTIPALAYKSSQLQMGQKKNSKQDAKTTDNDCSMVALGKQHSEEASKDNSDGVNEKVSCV
Chain of Human D2 (P14416 whole entry): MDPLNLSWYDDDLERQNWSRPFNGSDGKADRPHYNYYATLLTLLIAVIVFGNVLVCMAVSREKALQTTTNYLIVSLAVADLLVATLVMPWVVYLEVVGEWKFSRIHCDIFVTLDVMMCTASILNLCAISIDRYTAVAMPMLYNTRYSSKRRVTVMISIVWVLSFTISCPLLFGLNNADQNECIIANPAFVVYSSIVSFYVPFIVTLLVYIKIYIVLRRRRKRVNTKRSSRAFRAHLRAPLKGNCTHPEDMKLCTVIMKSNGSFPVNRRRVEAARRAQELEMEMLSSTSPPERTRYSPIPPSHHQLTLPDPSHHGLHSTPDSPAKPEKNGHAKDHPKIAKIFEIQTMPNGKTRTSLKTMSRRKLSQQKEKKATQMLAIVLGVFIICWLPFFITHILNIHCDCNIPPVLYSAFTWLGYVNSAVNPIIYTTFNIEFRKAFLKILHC
Chain of Rat D2 (P61169 whole entry): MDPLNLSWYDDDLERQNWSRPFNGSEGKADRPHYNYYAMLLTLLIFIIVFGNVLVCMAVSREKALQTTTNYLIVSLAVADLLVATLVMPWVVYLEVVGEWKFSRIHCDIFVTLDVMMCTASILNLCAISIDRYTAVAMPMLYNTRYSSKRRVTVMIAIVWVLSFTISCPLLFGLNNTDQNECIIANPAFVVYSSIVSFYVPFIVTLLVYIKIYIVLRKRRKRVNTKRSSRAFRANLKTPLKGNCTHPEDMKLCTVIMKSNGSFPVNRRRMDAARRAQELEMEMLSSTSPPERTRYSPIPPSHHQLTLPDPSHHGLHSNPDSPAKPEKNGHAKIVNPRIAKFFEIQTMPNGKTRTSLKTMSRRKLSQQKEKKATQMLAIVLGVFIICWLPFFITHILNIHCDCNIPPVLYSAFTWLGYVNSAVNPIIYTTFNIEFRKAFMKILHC
Chain of 5-HT2B (P41595 whole entry): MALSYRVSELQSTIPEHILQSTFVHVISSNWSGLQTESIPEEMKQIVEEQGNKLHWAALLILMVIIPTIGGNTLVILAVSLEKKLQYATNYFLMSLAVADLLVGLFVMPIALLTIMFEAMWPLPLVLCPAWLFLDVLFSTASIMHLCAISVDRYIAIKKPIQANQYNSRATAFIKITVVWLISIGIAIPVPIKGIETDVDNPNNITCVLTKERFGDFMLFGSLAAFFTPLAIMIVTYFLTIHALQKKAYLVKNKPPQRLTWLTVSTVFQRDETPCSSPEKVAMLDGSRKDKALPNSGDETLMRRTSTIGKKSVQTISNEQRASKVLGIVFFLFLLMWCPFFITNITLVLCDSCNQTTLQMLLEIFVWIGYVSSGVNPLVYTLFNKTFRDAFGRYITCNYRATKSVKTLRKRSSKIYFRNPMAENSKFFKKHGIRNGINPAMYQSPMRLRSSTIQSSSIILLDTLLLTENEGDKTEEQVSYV
Chain of h5-HT4B (Q13639 whole entry): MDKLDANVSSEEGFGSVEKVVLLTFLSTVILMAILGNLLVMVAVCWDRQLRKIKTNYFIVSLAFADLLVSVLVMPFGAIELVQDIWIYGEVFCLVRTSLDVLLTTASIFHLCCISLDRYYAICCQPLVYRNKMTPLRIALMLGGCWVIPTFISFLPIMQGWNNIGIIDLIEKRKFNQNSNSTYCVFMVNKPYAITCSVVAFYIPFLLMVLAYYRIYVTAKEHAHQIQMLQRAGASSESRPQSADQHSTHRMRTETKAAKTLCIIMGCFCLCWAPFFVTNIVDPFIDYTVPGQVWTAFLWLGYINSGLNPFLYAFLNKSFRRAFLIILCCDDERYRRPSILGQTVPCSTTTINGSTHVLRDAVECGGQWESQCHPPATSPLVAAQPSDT

`COCCCN1CCC(NC(=O)c2cc(Cl)c(N)c3c2OCC3)CC1` [Prucalopride]: the pKi was 4.52 on 5-HT2A, 5.62 to 5.80 on hD4, 4.39 at 5-HT2C and 5.42 to 5.46 at m5-HT3. Also, the results for the Ki on Human D2 and on Rat D2 were 14 µM and 6 µM, respectively.

`Nc1c(Cl)cc(C(=O)NC2CCN(CCC(=O)O)CC2)c2c1CCO2` [R107504]: the negative-log Ki (pKi) at 5-HT2A was 3.87; on 5-HT2B, 5.00; at h5-HT4B it was 7.13; on 5-HT2C it was 3.68. The Ki at Human D2 turned out to be 235 µM; at Rat D2, 138 µM.

The values above are taken from publication PMC9983627 (Drugs in Context, 2023).
